# Assay: HILIC, Waters Atlantis Premier BEH Z-HILIC, 100 × 2.1 mm, 1.7 µm, 40 °C, 0.15 mL/min, estimated dead time 1.5 min; A: water + 20 mM ammonium carbonate + 5 µM medronic acid; B: 10% water + 90% acetonitrile + 2 mM ammonium carbonate + 0.5 µM medronic acid; gradient (min/%B) 0/100 18/60 18.1/20 21.5/20 22/100 23.5/100 25.5/100
# Conditions: stereoisomer not certain
row,LC retention time [min],Compound
1,9.95,NC(=O)c1ccc[n+](C2OC(COP(=O)(O)OP(=O)(O)OCC3OC(n4cnc5c(N)ncnc54)C(O)C3O)C(O)C2O)c1 (configuration not stated) [NAD]
2,13.6,Nc1ncnc2c1ncn2C1OC(COP(=O)(O)OP(=O)(O)OP(=O)(O)O)C(O)C1O (configuration not stated) [ATP]
3,13.1,C=C(OP(=O)(O)O)C(=O)O [PEP]
4,9.81,NC(CCC(=O)O)C(=O)O (configuration not stated) [Glutamic acid]
5,8.31,NC(=O)C1=CN(C2OC(COP(=O)(O)OP(=O)(O)OCC3OC(n4cnc5c(N)ncnc54)C(O)C3O)C(O)C2O)C=CC1 (configuration not stated) [NADH]
6,8.9,O=C(O)CCC(=O)O [Succinic Acid]
7,10.4,O=P(O)(O)OCC(O)CO (configuration not stated) [Glycerol-3-phosphate]
8,9.95,CC(=O)NC1C(OP(=O)(O)OP(=O)(O)OCC2OC(n3ccc(=O)[nH]c3=O)C(O)C2O)OC(CO)C(O)C1O (configuration not stated) [UDP-GlcNAc]
9,6.46,CC(C)CC(N)C(=O)O (configuration not stated) [Leucine]
10,11.4,CC(C)(COP(=O)(O)OP(=O)(O)OCC1OC(n2cnc3c(N)ncnc32)C(O)C1OP(=O)(O)O)C(O)C(=O)NCCC(=O)NCCS (configuration not stated) [CoenzymeA]
11,6.98,OCC1OC(O)C(O)C(O)C1O (configuration not stated) [Hexose]
12,3.35,CC(O)C(=O)O (configuration not stated) [Lactic Acid]
13,8.86,O=C(O)CCC(O)C(=O)O (configuration not stated) [2-hydroxy glutaric acid]
14,4.08,O=C1CC(C(=O)O)NC(=O)N1 (configuration not stated) [dihydroorotic acid]
15,6.4,CCC(C)C(N)C(=O)O (configuration not stated) [Isoleucine]
16,14.3,O=C(O)CC(O)(CC(=O)O)C(=O)O [Citric acid]

row,LC retention time [min],Compound
1,3.63,Nc1ncnc2c1ncn2C1OC(CO)C(O)C1O (configuration not stated) [Adenosine]
2,11.6,Nc1ncnc2c1ncn2C1OC(COP(=O)(O)OP(=O)(O)O)C(O)C1O (configuration not stated) [ADP]
3,4.67,O=C(O)CCCCC1SCC2NC(=O)NC21 (configuration not stated) [Biotin]
4,9.69,CC(=O)SCCNC(=O)CCNC(=O)C(O)C(C)(C)COP(=O)(O)OP(=O)(O)OCC1OC(n2cnc3c(N)ncnc32)C(O)C1OP(=O)(O)O (configuration not stated) [Acetyl-CoA]
5,12.8,O=C(O)C(CO)OP(=O)(O)O (configuration not stated) [Phosphoglyceric acid A]
6,8.86,O=C(O)CCC(=O)C(=O)O [2-Oxoglutaric acid]
7,10.1,C[N+](C)(C)CC(O)CC(=O)[O-] (configuration not stated) [Carnitine]
8,6.46,CCC(=O)OC(CC(=O)[O-])C[N+](C)(C)C (configuration not stated) [carnitine-C3]
9,11.3,O=C(CO)C(O)C(O)C(O)COP(=O)(O)O (configuration not stated) [Fructose 6-phosphate]
10,10.4,O=C(CO)COP(=O)(O)O [Triose phosphate]
11,9.87,NC(=O)CCC(N)C(=O)O (configuration not stated) [Glutamine]
12,13.4,NC(=O)c1ccc[n+](C2OC(COP(=O)(O)OP(=O)(O)OCC3OC(n4cnc5c(N)ncnc54)C(OP(=O)(O)O)C3O)C(O)C2O)c1 (configuration not stated) [NADP]
13,9.42,Nc1ncnc2c1ncn2C1OC(COP(=O)(O)O)C(O)C1O (configuration not stated) [AMP]
14,7.67,Cc1cc2nc3c(=O)[nH]c(=O)nc-3n(CC(O)C(O)C(O)COP(=O)(O)OP(=O)(O)OCC3OC(n4cnc5c(N)ncnc54)C(O)C3O)c2cc1C (configuration not stated) [FAD]
15,14,O=C(O)CC(C(=O)O)C(O)C(=O)O (configuration not stated) [Isocitric acid]
16,12.3,O=P(O)(O)OCC1OC(O)C(O)C(O)C1O (configuration not stated) [Glucose-6-phosphate]
